Results: patent US12202843B2, “Muscarinic receptor agonists” (Nxera Pharma UK Limited, priority 2014, dated 2025)

What was measured:
Assay type in all cases: cell-based
[1] = biological target: T1, human muscarinic M4 receptor (Homo sapiens, UniProt P08173); assay: Alphascreen Surefire phospho-ERK1/2 functional assay, M4; conditions: for % Emax cf. ACh, M4: CHO cells stably expressing human M4, relative to ACh; for EC50: CHO cells stably expressing human M4, read-out: pEC50 M4 (converted); for Emax: CHO, read-out: % Emax cf. ACh, M4, CHO cells stably expressing human M4, relative to ACh
T1 construct: expressed in transfected cells
T1 sequence (P08173 1-479): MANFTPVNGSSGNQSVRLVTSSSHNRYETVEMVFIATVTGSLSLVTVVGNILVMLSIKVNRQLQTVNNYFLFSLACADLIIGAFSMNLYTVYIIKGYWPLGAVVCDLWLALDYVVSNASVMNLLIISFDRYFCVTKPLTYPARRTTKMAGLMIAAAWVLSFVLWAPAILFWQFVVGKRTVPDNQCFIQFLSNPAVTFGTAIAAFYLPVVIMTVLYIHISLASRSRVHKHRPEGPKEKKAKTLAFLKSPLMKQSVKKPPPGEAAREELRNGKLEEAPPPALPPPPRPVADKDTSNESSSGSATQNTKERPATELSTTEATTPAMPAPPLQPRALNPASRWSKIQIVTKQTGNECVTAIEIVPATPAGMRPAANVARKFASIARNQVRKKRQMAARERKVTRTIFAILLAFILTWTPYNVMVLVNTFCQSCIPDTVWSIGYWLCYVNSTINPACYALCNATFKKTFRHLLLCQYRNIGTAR
Method: (§1) ERK1/2 phosphorylation is a downstream consequence of both Gq/11 and Gi/o protein coupled receptor activation, making it highly suitable for the assessment of M1, M3 (Gq/11 coupled) and M2, M4 receptors (Gi/o coupled), rather than using different assay formats for different receptor subtypes. CHO cells stably expressing the human muscarinic M1, M2, M3 or M4 receptor were plated (25K/well) onto 96-well tissue culture plates in MEM-alpha+10% dialysed FBS. Once adhered, cells were serum-starved overnight. Agonist stimulation was performed by the addition of 5 μL agonist to the cells for 5 min (37° C.). Media was removed and 50 μL of lysis buffer added. […] Plates were incubated for 2 h with gentle agitation in the dark and then read on a PHERAstar plate reader.
(§2) pEC50 and Emax figures were calculated from the resulting data for each receptor subtype.

[2] = biological target: T2, human muscarinic M1 receptor (Homo sapiens, UniProt P11229); assay: Alphascreen Surefire phospho-ERK1/2 functional assay, M1; conditions: for EC50: CHO cells stably expressing human M1, read-out: pEC50 M1 (converted); for % Emax cf. ACh, M1: CHO cells stably expressing human M1, relative to ACh; for Emax: CHO, read-out: % Emax cf. ACh, M1, CHO cells stably expressing human M1, relative to ACh
T2 sequence (P11229 1-460): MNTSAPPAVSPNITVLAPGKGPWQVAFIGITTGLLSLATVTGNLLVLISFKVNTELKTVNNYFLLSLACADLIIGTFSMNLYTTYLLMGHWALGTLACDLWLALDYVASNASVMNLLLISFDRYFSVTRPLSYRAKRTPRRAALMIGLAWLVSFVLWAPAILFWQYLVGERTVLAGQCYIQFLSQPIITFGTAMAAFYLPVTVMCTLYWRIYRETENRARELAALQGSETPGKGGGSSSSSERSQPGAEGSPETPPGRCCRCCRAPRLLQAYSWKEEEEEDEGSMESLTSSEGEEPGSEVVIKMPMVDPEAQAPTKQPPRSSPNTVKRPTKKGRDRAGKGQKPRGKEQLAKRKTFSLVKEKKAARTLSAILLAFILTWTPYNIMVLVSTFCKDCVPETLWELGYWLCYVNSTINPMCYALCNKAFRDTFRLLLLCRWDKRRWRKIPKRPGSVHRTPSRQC
Method: as §1, §2

[3] = biological target: T3, human muscarinic M3 receptor (Homo sapiens, UniProt P20309); assay: Alphascreen Surefire phospho-ERK1/2 functional assay, M3; conditions: for EC50: CHO cells stably expressing human M3, read-out: pEC50 M3 (converted); for Emax: CHO, read-out: % Emax cf. ACh, M3, CHO cells stably expressing human M3, relative to ACh; for % Emax cf. ACh, M3: CHO cells stably expressing human M3, relative to ACh
T3 construct: expressed in transfected cells
Method: as §1, §2

[4] = biological target: T4, human muscarinic M2 receptor (Homo sapiens, UniProt P08172); assay: Alphascreen Surefire phospho-ERK1/2 functional assay, M2; conditions: for EC50: CHO cells stably expressing human M2, read-out: pEC50 M2 (converted); for Emax: CHO, read-out: % Emax cf. ACh, M2, CHO cells stably expressing human M2, relative to ACh; for % Emax cf. ACh, M2: CHO cells stably expressing human M2, relative to ACh
T4 sequence (P08172 1-466): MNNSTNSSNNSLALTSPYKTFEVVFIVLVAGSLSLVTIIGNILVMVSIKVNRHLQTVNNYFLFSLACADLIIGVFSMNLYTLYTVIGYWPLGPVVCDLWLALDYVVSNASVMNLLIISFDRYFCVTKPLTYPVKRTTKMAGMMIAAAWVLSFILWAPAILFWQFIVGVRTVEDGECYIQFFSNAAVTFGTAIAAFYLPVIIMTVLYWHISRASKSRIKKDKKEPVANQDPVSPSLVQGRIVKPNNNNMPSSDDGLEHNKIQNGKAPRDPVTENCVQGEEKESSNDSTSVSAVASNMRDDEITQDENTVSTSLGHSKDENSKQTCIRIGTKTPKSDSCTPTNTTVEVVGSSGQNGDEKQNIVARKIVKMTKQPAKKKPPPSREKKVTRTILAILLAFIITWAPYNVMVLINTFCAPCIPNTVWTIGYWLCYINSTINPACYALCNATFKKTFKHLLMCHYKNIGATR
Method: as §1, §2

T3 sequence (P20309 whole entry): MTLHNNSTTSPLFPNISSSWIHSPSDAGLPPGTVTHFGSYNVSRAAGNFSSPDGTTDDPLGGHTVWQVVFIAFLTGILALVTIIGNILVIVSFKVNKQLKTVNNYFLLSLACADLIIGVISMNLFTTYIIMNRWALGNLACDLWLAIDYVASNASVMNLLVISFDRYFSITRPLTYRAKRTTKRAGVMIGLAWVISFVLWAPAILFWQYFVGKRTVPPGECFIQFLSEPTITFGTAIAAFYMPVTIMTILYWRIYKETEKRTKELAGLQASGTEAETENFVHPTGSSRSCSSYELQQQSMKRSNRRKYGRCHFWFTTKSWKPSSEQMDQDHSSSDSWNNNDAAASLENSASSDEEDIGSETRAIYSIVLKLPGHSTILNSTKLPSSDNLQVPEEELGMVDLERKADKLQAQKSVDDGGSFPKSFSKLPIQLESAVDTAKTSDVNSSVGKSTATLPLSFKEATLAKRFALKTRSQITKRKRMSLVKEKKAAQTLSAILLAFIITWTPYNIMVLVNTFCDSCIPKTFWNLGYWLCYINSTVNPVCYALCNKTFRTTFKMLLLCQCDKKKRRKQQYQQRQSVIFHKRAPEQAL

Structure (SMILES) | EC50 [2] [µM] | EC50 [3] [µM] | Emax [3] [%] | EC50 [4] [µM] | Emax [4] [%] | EC50 [1] [µM] | Emax [2] [%] | Emax [1] [%] | other results
CCOC(=O)N1C2CCCC1CC(N1CCC3(CC1)CNC(=O)O3)C2 (single isomer, unassigned) [Example 5-4 Isomer 2] | 0.158 | > 20 | 0 | > 20 | 2 |  |  |  | % Emax cf. ACh, M4 ([1]; listed as 5-4 Isomer 2): 8%; % Emax cf. ACh, M1 [2]: 72%
CCOC(=O)N1C2CCC1C(F)C(N1CCC3(CC1)CNC(=O)C3)C2 (single isomer, unassigned) [Example 2-11 Isomer 2] | 0.251 | > 20 | 22 | > 20 | 18 | 0.2 |  |  | % Emax cf. ACh, M4 [1]: 55%; % Emax cf. ACh, M1 [2]: 101%
CCOC(=O)N1C2CCC1CC(N1CCC3(CC1)CC(=O)NC3Cc1ccccc1)C2 (single isomer, unassigned) [Example 2-10 Isomer 1] | 0.02 | > 20 |  | > 20 |  | 0.0794 | 74 |  | % Emax cf. ACh, M4 ([1]; listed as 2-10 Isomer 1): 21%; % Emax cf. ACh, M3 ([3]; listed as 2-10 Isomer 1): 5%; % Emax cf. ACh, M2 ([4]; listed as 2-10 Isomer 1): 1%
CCOC(=O)N1C2CCC1CC(N1CCC3(CC1)CC(=O)N(CC)C3)C2 (single isomer, unassigned) [Example 2-13 Isomer 2] | 0.158 | > 20 | 57 | > 20 | 11 | 0.1 | 76 | 49 | 
CCOC(=O)N1CC2CCC1CC2N1CCC2(CC1)CNC(=O)C2 (single isomer, unassigned) [Example 3-1 Isomer 2, ethyl 5-(3-oxo-2,8-diazaspiro[4.5]dec-8-yl)-2-azabicyclo[2.2.2]octane-2-carboxylate] | 0.0631 |  |  | > 20 |  | 0.251 |  |  | % Emax cf. ACh, M4 ([1]; listed as 3-1 Isomer 2): 31%; % Emax cf. ACh, M1 ([2]; listed as 3-1 Isomer 2): 94%; % Emax cf. ACh, M3 ([3]; listed as 3-1 Isomer 2): 1%; % Emax cf. ACh, M2 ([4]; listed as 3-1 Isomer 2): 11%
[2H]C([2H])(C)OC(=O)N1C2CCC1CC(N1CCC3(CC1)CNC(=O)C3)C2 (single isomer, unassigned) [Example 2-30 Isomer 2, (1,1-^2H2)ethyl 3-(3-oxo-2,8-diazaspiro[4.5]dec-8-yl)-8-azabicyclo[3.2.1]octane-8-carboxylate] | 0.0316 | > 20 | 16 | > 20 | 9 | 0.0794 |  |  | % Emax cf. ACh, M4 [1]: 29%; % Emax cf. ACh, M1 ([2]; listed as 2-30 Isomer 2): 66%
C#CCOC(=O)N1C2CCC1CC(N1CCC3(CC1)CNC(=O)C3)C2 (single isomer, unassigned) [Example 2-4 Isomer 2] | 0.02 |  |  |  |  | 0.0251 |  |  | % Emax cf. ACh, M4 [1]: 53%; % Emax cf. ACh, M1 [2]: 86%; % Emax cf. ACh, M3 ([3]; listed as 2-4 Isomer 2): 0%; % Emax cf. ACh, M2 ([4]; listed as 2-4 Isomer 2): 8%
CCOC(=O)N1CC2CCC1CC2N1CCC2(CC1)CNC(=O)C2 (single isomer, unassigned) [Example 3-1 Isomer 1, ethyl 5-(3-oxo-2,8-diazaspiro[4.5]dec-8-yl)-2-azabicyclo[2.2.2]octane-2-carboxylate] | 0.00126 | > 20 |  | 0.01 |  | 0.00398 |  |  | % Emax cf. ACh, M4 ([1]; listed as 3-1 Isomer 1): 61%; % Emax cf. ACh, M1 ([2]; listed as 3-1 Isomer 1): 111%; % Emax cf. ACh, M3 ([3]; listed as 3-1 Isomer 1): 6%; % Emax cf. ACh, M2 ([4]; listed as 3-1 Isomer 1): 63%
CC#CCOC(=O)N1C2CCC1CC(N1CCC3(CC1)CNC(=O)C3)C2 (single isomer, unassigned) [Example 2-5 Isomer 1] | 0.0251 | > 20 | 7 | 0.158 | 39 | 0.0251 | 98 | 87 | 
CCOC(=O)N1C2CCC1CC(N1CCC3(CC1)OC(=O)NC3C(C)C)C2 (single isomer, unassigned) [Example 2-17 Isomer 1] | 0.0316 | > 20 |  | > 20 | 2 | 0.02 |  |  | % Emax cf. ACh, M4 ([1]; listed as 2-17 Isomer 1): 25%; % Emax cf. ACh, M1 ([2]; listed as 2-17 Isomer 1): 58%; % Emax cf. ACh, M3 ([3]; listed as 2-17 Isomer 1): 51%
CCOC(=O)N1C2CCC1CC(N1CCC3(CC1)CNC(=O)C3)C2 (single isomer, unassigned) [Example 2-2 Isomer 2, ethyl 3-(3-oxo-2,8-diazaspiro[4.5]dec-8-yl)-8-azabicyclo[3.2.1]octane-8-carboxylate] |  |  |  |  | 0 |  | 86 |  | % Emax cf. ACh, M4 ([1]; listed as 2-2 Isomer 2): 31%; % Emax cf. ACh, M3 ([3]; listed as 2-2 Isomer 2): 0%
CC#CCOC(=O)N1[C@@H]2CCC[C@H]1CC(N1CCC3(CC1)CNC(=O)C3)C2 (mixture of isomers) [Example 5-3] | 0.0316 | 6.31 | 19 | > 20 | 7 | 0.0316 | 80 | 37 | 
C#CCOC(=O)N1C2CCC1CC(N1CCC3(CC1)CNC(=O)C3)C2 (single isomer, unassigned) [Example 2-4 Isomer 1] | 0.1 | > 20 |  | > 20 |  | 0.126 | 92 | 64 | % Emax cf. ACh, M3 ([3]; listed as 2-4 Isomer 1): 7%; % Emax cf. ACh, M2 ([4]; listed as 2-4 Isomer 1): 27%
